Results from patent US20140213575A1, “6H-Thieno[3,2-f][1,2,4]triazolo[4,3-a][1,4]diazepines” (BAYER INTELLECTUAL PROPERTY GMBH, priority 2011, published 2014).
Entries after “also recorded” stand apart in the source; their conditions may differ.

Legend:
[1] = Plasma concentrations from in-vivo tests and PK parameters; conditions: mouse; for Plasma concentration: 60 mg/kg p.o.
Procedure: After thawing and shaking, the samples are centrifuged for 20 minutes at 4° C. and approx. 2000×g. An aliquot of the supernatant (approx. 25 μL) is measured by LCMS analysis. If high plasma or tissue levels are expected (>ULOQ, as a rule 5 μM) the precipitated samples are additionally diluted 1:100 with ACN/H2O (80/20, v/v)+internal standard and corresponding aliquots are measured by LCMS. For this, the test substance is added in 5-9 concentrations, corresponding to the determination range of the analytical method, to a control matrix (calibration samples), e.g. 0, 1, 10, 100, 1000, 5000 nM. For this, a portion of solid is weighed and is dissolved in DMSO (as a rule 1 mM stock solution). This stock solution is further diluted 1:10 with DMSO ([…]). Then 1:5 (v/v) ACN+internal standard (soln. A) is added to the calibration samples and processed further as with the plasma samples. The calibration series in solvent takes place similarly to the plasma calibration described. The test substance is in this case prepared in ACN/H2O (50/50, v/v) and then 1:5 (v/v) ACN+internal standard is added to the samples. This series serves for calibration of the diluted samples. The following PK parameters are calculated from these concentration-time profiles obtained: […]
AUC(0-tlast),norm multiplied by the free fraction (fu) of the species investigated.

[2] = system: MOLP-8 cells; test: Cellular proliferation assay (alamarBlue) MOLP-8; assay type: cell-based; conditions: Homo sapiens, 120 hours, read-out: Multiple myeloma MOLP-8 IC50
Procedure: (§1) In accordance with the invention, the ability of the substances to inhibit the proliferation of various cell lines was determined. Cell viability was determined by means of the alamarBlue® reagent (Invitrogen). […] After incubation overnight at 37° C., the fluorescence values were determined (CI values). […] Then the fluorescence values were determined (CO values).
(§2) The substances were investigated in the cell lines in Table 1, which for example represent the stated indications: […]

[3] = system: B16F10 cells; test: Cellular proliferation assay (alamarBlue) B16F10; assay type: cell-based; conditions: Mus musculus, B16-F10, 96 hours, read-out: Melanoma B16F10 IC50
Procedure: as §1, §2

[4] = system: MOLM-13 cells; test: Cellular proliferation assay (alamarBlue) MOLM-13; assay type: cell-based; conditions: Homo sapiens, 96 hours, read-out: Leukaemia MOLM-13 IC50
Procedure: as §1, §2

[5] = system: MDA-MB-231 cells; test: Cellular proliferation assay (alamarBlue) MDA-MB-231; assay type: cell-based; conditions: Homo sapiens, 96 hours, read-out: Breast MDA-MB-231 IC50
Procedure: as §1, §2

[6] = In-vivo tolerability in the mouse; set-up: species or system female NMRI nude mice; conditions: for Drug-induced deaths (day): 3 animals per group
Procedure: The substances were formulated in NMP/PEG300 (1/9 V/V). They were administered orally, in an amount of 10 ml/kg, once or twice daily for a period of 5 to 7 days to female NMRI nude mice (6-8 weeks old; 3 animals per group). Body weight and mortality of the mice were monitored daily up to the end of the study. Toxicity was defined as follows: ≧10% substance-induced deaths or ≧20% weight loss.

[7] = system: HeLa-MaTu cells; test: Cellular proliferation assay (alamarBlue) HeLa-MaTu; assay type: cell-based; conditions: 96 hours, read-out: Cervix HeLa-MaTu IC50
Procedure: as §1, §2

[8] = system: MOLM-13 cells; test: MOLM-13 acute monocytic leukaemia tumour model; conditions: 70 mg/kg oral daily; significance P<0.05
Procedure: NMRI nude mice were inoculated subcutaneously in the right flank on day 0 with 2×10^6 MOLM-13 cells in 0.1 ml Matrigel. […] Practical example 1 and practical example 2 were dissolved in 40% PEG400, 5% ethanol, 25% Solutol. The substances were administered orally, daily for […] (day 3 to day 14). […] Practical examples 1 and 2 were applied at a daily dose of 200 (highest dose used), 120 or 70 mg/kg.

[9] = system: LNCaP cells; test: Cellular proliferation assay (alamarBlue) LNCaP; assay type: cell-based; conditions: Homo sapiens, 168 hours, read-out: Prostate LNCaP IC50
Procedure: as §1, §2

[10] = system: VCaP cells; test: Cellular proliferation assay (alamarBlue) VCaP; assay type: cell-based; conditions: Homo sapiens, 168 hours, read-out: Prostate VCaP IC50
Procedure: as §1, §2

[11] = B16F10 melanoma tumour model; conditions: C57BL/6, mouse, in vivo, po
Procedure: (§3) C57BL/6 mice were inoculated on day 0 with 0.5×10^6 cells in 0.1 ml medium, subcutaneously, in the right flank. […] The substances were administered orally for 10 days (day 2 to day 11). […] Practical example 2 was applied at a dose of 160 or 120 mg/kg.

[12] = system: B16F10 melanoma; test: B16F10 melanoma tumour model; conditions: for weight loss: oral, day 2 to day 11
Procedure: as §3

[13] = system: plasma proteins; test: Plasma protein binding by equilibrium dialysis; assay type: in vitro ADME, mouse
Procedure: The binding of test substances to plasma proteins is determined by equilibrium dialysis by means of the Ht-dialysis apparatus (96-well) made of Teflon and a semipermeable membrane (regenerated cellulose, MWCO 12-14K). This separates 150 μl of each of a plasma side and a buffer side (50 mM phosphate buffer). The test substance is added in 2 concentrations (usually 3 and 0.3 μM) to the plasma side and binds to plasma proteins. The unbound fraction of the test substance passes through the membrane and is distributed on either side until equilibrium is established (after approx. 6-8 h at 37° C.). The substance concentration on the buffer side and the plasma side is determined by LC-MS analysis. For this, both sides are brought by dilution with buffer or plasma to the same matrix (10% plasma) and then precipitated with methanol. The free (unbound) fraction (fu) is calculated from the quotient of the buffer and plasma concentration. Stability tests and recovery tests are run concurrently as controls. In addition, the substance in buffer is dialysed against buffer, to check the nonspecific binding to apparatus and membrane and establishment of equilibrium. Because during incubation the osmotic pressure of the plasma proteins leads to dilution of the plasma (volume shift), this possible error is determined by weighing blank plasma samples and is included in the calculation of fu. Establishment of equilibrium and plasma stability should have a value not lower than 80% and the recovery should be at least 30%. A free fraction of <1% is regarded as high, between 1 and 10% as moderate and >10% as low plasma protein binding.

[14] = system: MCF-7 cells; test: Cellular proliferation assay (alamarBlue) MCF-7; assay type: cell-based; conditions: Homo sapiens, MCF7, 96 hours, read-out: Breast MCF-7 IC50
Procedure: as §1, §2

[15] = oral 50 mg/kg, QD × 5, twice daily
[16] = oral 100 mg/kg, QD × 5, twice daily
[17] = oral 100 mg/kg, QD × 7, once daily

SMILES: Cc1sc2c(c1C)C(c1ccc(Cl)cc1)=N[C@@H](CC(=O)OC(C)(C)C)c1nnc(C)n1-2 [Example V1, tert-Butyl[(S)-4-(4-chlorophenyl)-2,3,9-trimethyl-6H-thieno[3,2-f][1,2,4]triazolo[4,3-a][1,4]diazepin-6-yl]acetate, reference compound]
- Plasma concentration ([1]; 1 h): 2.2458 µg/mL
- Plasma concentration ([1]; 3 h): 1.2202 µg/mL
- Plasma concentration ([1]; 5 h): 0.5872 µg/mL
- Plasma concentration ([1]; 7 h): 0.3215 µg/mL
- AUC(0-tlast),norm,u ([1]; single oral dose 60 mg/kg, AUCnorm multiplied by fu): 0.002 kg·h/L
- AUC(0-tlast),norm ([1]; single oral dose 60 mg/kg, dose-normalized): 0.12 kg·h/L
- tlast ([1]; single oral dose 60 mg/kg, last time point with measurable plasma concentration): 7.0 h
- IC50 [2]: 0.063 µM
- IC50 [3]: 0.067 µM
- IC50 [4]: 0.059 µM
- IC50 [5]: 0.086 µM
- maximum body weight loss ([6]; 50 mg/kg twice daily, on day 6): 7%
- highest weight loss ([6]; daily dose of 100 mg/kg for 7 days, on the 9th day): 10%
- MTD ([6]; female, NMRI nude, mouse, in vivo, oral, once daily, read-out: maximum tolerated treatment dose (MTD), single daily treatment): 100 mg/kg
- % maximum body weight change (day) [6, 15]: −7 (6) %
- Remarks (tolerability) [6, 15]: MTD
- Drug-induced deaths (day) [6, 15]: 0/3
- % maximum body weight change (day) [6, 16]: −19 (5) %
- Remarks (tolerability) ([6]; oral 100 mg/kg, QD × 5, twice daily, 100 mg/kg): Not tolerated
- Drug-induced deaths (day) [6, 16]: 2
- % maximum body weight change (day) [6, 17]: −10 (9) %
- Remarks (tolerability) ([6]; oral 100 mg/kg, QD × 7, once daily, 100 mg/kg): tolerated; also recorded: MTD (10% body-
- Drug-induced deaths (day) [6, 17]: 0/3
- IC50 [7]: 0.107 µM
- activity on tumour growth [8]: biologically active
- IC50 [9]: 0.063 µM
- IC50 [10]: 0.037 µM
- MTD at 10 days [11]: 55 mg/kg
- weight loss ([12]; 120 mg/kg dose): 2%
- weight loss ([12]; 160 mg/kg dose): 6%
- deaths ([12]; on day 12, in both dose groups): One mouse (out of 12) died
- fu ([13]; free fraction of the species investigated (mouse), as used in Table 6): 1.5%
- fraction unbound ([13]; mouse, plasma, free (unbound) fraction, equilibrium dialysis, read-out: Protein binding, given as % fu): 0.015
- IC50 [14]: 0.148 µM
